Results from patent publication US5686486A, “4-hydroxy-benzopyran-2-ones and 4-hydroxy-cycloalkyl[b]pyran-2-ones useful to treat retroviral infections” (priority 1995, dated 1997).
Where a name gives a salt, the structure may show the parent alone. Read-outs that look alike come from different tables or passages of the source.

Biological target: HIV-1 protease (Human immunodeficiency virus type 1 group M subtype B, UniProt P04585)
Experiment: biochemical
Conditions: for inhibition at 0.123 µM: read-out: HIV-1 Protease % Inhib, dose 0.123 uM
Procedure, shortened: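 Percent inhibition derived from fluorescent cleavage product separated by filtration after streptavidin-bead capture of intact biotin/FITC substrate. Reaction: enzyme (10 μl, 0.1 μM stock) with substrate (20 μl, 0.2 μM stock) and compound, 1 h at room temperature in dark, pH 5.5 acetate buffer with 1.0 M NaCl and 0.05% NP-40.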

[1] = dose 1.100 uM, read-out: HIV-1 Protease % Inhib
[2] = dose 3.300 uM, read-out: HIV-1 Protease % Inhib
[3] = dose 10.000 uM, read-out: HIV-1 Protease % Inhib
[4] = dose 30.000 uM, read-out: HIV-1 Protease % Inhib
[5] = dose 0.370 uM, read-out: HIV-1 Protease % Inhib
[6] = read-out: HIV-1 Protease % Inhib, dose 0.370 uM
[7] = read-out: HIV-1 Protease % Inhib, dose 1.100 uM
[8] = read-out: HIV-1 Protease % Inhib, dose 3.300 uM
[9] = read-out: HIV-1 Protease % Inhib, dose 10.000 uM
[10] = read-out: HIV-1 Protease % Inhib, dose 30.000 uM

Row | Compound | inhibition at 1.1 µM [1] | inhibition at 3.3 µM [2] | inhibition at 10 µM [3] | inhibition at 30 µM [4] | inhibition at 0.37 µM [5] | inhibition at 0.123 µM | inhibition at 0.37 µM [6] | inhibition at 1.1 µM [7] | inhibition at 3.3 µM [8] | inhibition at 10 µM [9] | inhibition at 30 µM [10]
1 | O=c1oc2c(c(O)c1C(c1ccccc1)C1CC1)CCCCC2CCC1OCCO1 (stereo not drawn) [Example 186, 3-(Cyclopropylphenylmethyl)-9-[2-(1,3-dioxolan-2-yl)ethyl]-6,7,8,9-tetrahydro-4-hydroxy-cyclohepta[b]pyran-2(5H)-one] | 29.2% | 64.6% | 88.7% | 101% | – | – | – | – | – | – | –
2 | O=c1oc2c(c(O)c1C(c1ccccc1)C1CC1)CCCCC2CC1CCCOC1 (stereo not drawn) [Example 187, 3-(Cyclopropylphenylmethyl)-6,7,8,9-tetrahydro-4-hydroxy-9-[(tetrahydro-2H-pyran-3-yl)methyl]-cyclohepta[b]pyran-2(5H)-one] | 32.9% | 68% | 90% | 90.2% | 10.6% | – | – | – | – | – | –
3 | O=c1oc2c(c(O)c1C(c1ccccc1)C1CC1)CCCCC2CC1CCCCO1 (stereo not drawn) [Example 190, 3-(Cyclopropylphenylmethyl)-6,7,8,9-tetrahydro4-hydroxy-9-[(tetrahydro-2H-pyran-2-yl)methyl]-cyclohepta[b]pyran-2(5H)-one] | 35.9% | 79.3% | 96% | 102% | – | – | – | – | – | – | –
4 | O=c1oc2c(c(O)c1C(c1ccccc1)C1CC1)CCCCC2CC1CCOC1 (stereo not drawn) [Example 191, 3-(Cyclopropylphenylmethyl)-6,7,8,9-tetrahydro-4-hydroxy-9-[(tetrahydro-3-furanyl)methyl]-cyclohepta[b]pyran-2(5H)-one] | 55% | 93.3% | 101% | 100% | 16.9% | – | – | – | – | – | –
5 | CC(O)CC1CCCCc2c1oc(=O)c(C(c1ccccc1)C1CC1)c2O (stereo not drawn) [Example 192, 3-(Cyclopropylphenylmethyl)-6,7,8,9-tetrahydro-4-hydroxy-9-(2-hydroxypropyl)-cyclohepta[b]pyran-2(5H)-one] | 24.9% | 68.8% | 102% | 102% | – | – | – | – | – | – | –
6 | COCCC1CCCCc2c1oc(=O)c(C(c1ccccc1)C1CC1)c2O (stereo not drawn) [Example 193, 3-(Cyclopropylphenylmethyl)-6,7,8,9-tetrahydro-4-hydroxy-9-(methoxyethyl)-cyclohepta[b]pyran-2(5H)-one] | 35% | 70.4% | 97.7% | 105% | – | – | – | – | – | – | –
7 | C[C@H](NC(=O)OC(C)(C)C)C(=O)Nc1cccc(C(c2c(O)c3c(oc2=O)CCCCCC3)C2CC2)c1 (stereo partly drawn) [Example 198, Carbamic acid, [2-[[3-[cyclopropyl(5,6,7,8,9,10-hexahydro-4-hydroxy-2-oxo-2H-cycloocta[b]pyran-3-yl)methyl]phenyl]amino]-1-(S)-methyl-2-oxyethyl]-, 1,1-dimethylethyl ester] | – | – | – | – | – | 67.1% | 91.9% | 107% | 111% | 115% | 116%
8 | CC(C)(C)OC(=O)NCCCC(=O)Nc1cccc(C(c2c(O)c3c(oc2=O)CCCCCC3)C2CC2)c1 (stereo not drawn) [Example 201, Carbamic acid, [4-[[3-[cyclopropyl(5,6,7,8,9,10-hexahydro,-hydroxy-2-oxo-2H-cycloocta[b]pyran-3-yl)methyl]phenyl]amino]-4-oxybutyl]-, 1,1-dimethylethyl ester] | – | – | – | – | – | 31.2% | 60.1% | 80% | 95.4% | 100% | 107%
9 | CC(C)(C)OC(=O)N1CCC[C@H]1C(=O)Nc1cccc(C(c2c(O)c3c(oc2=O)CCCCCC3)C2CC2)c1 (stereo partly drawn) [Example 202, 1-(S)-Pyrrolidinecarboxylic acid, 2-[[[3-[cyclopropyl(5,6,7,8,9,10-hexahydro-4-hydroxy-2-oxo-2H-cycloocta[b]pyran-3-yl)methyl]phenyl]amino]carbonyl]-, 1,1-dimethylethyl ester] | – | – | – | – | – | 20.1% | 48.1% | 73.1% | 88.1% | 93.8% | 94.4%
10 | C[C@@H](NC(=O)OC(C)(C)C)C(=O)Nc1cccc(C(c2c(O)c3c(oc2=O)CCCCCC3)C2CC2)c1 (stereo partly drawn) [Example 203, Carbamic acid, [2-[[3-[cyclopropyl(5,6,7,8,9,10-hexahydro-4-hydroxy-2-oxo-2H-cycloocta[b]pyran-3-yl)methyl]phenyl]amino]-1-(R)-methyl-2-oxyethyl]-, 1,1-dimethylethyl ester] | – | – | – | – | – | 15.6% | 55.8% | 81.3% | 94.3% | 104% | 94.3%
11 | CC(C)(C)OC(=O)N[C@H](Cc1c[nH]cn1)C(=O)Nc1cccc(C(c2c(O)c3c(oc2=O)CCCCCC3)C2CC2)c1 (stereo partly drawn) [Example 204, Carbamic acid, [2-[[3-[cyclopropyl(5,6,7,8,9,10-hexahydro-4-hydroxy-2-oxo-2H-cycloocta[b]pyran-3-yl)methyl]phenyl]amino]-1-(R)-(1H-imidazol-4-ylmethyl)-2-oxoethyl]-, 1,1-dimethylethyl ester] | – | – | – | – | – | 49% | 86.5% | 107% | 114% | 117% | 116%
12 | O=C(Nc1cccc(C(c2c(O)c3c(oc2=O)CCCCCC3)C2CC2)c1)c1ccc(Cl)cc1 (stereo not drawn) [Example 206, Benzamide, 4-chloro-N-[3-[cyclopropyl(5,6,7,8,9,10-hexahydro-4-hydroxy-2-oxo-2H-cycloocta[b]pyran-3-yl)methyl]phenyl]-] | 48% | 76.4% | 95.8% | 93.1% | 17.9% | – | – | – | – | – | –
13 | O=C(C=Cc1ccccc1)Nc1cccc(C(c2c(O)c3c(oc2=O)CCCCCC3)C2CC2)c1 (stereo not drawn) [Example 208] | 22.9% | 57.6% | 76.8% | 84.4% | – | – | – | – | – | – | –
14 | O=C(Nc1cccc(C(c2c(O)c3c(oc2=O)CCCCCC3)C2CC2)c1)c1cccc2ccccc12 (stereo not drawn) [Example 212, 1-Naphthalenecarboxamide, N-[3-[cyclopropyl(5,6,7,8,9,10-hexahydro4-hydroxy-2-oxo-2H-cyclooct[b]pyran-3-yl)methyl]phenyl]-] | – | 32.5% | 59.5% | 69.5% | – | – | – | – | – | – | –
15 | CC(C)(C)OC(=O)NCC(=O)N(Cc1ccccc1)c1cccc(C(c2c(O)c3c(oc2=O)CCCCCC3)C2CC2)c1 (stereo not drawn) [Example 216, Carbamic acid, [2-[[3-[cyclopropyl(5,6,7,8,9,10-hexahydro4-hydroxy-2-oxo-2H-cycloocta[b]pyran-3-yl)methyl]phenyl](phenylmethyl)amino]-2-oxyethyl]-, 1,1-dimethylethyl ester] | – | – | 10.9% | 31.4% | – | – | – | – | – | – | –
16 | CCC(c1cccc(NC(=O)OCc2ccccc2)c1)c1c(O)c2c(oc1=O)CCCCCC2 (stereo not drawn) [Example 217, Carbamic Acid, [3-[1-(5,6,7,8,9,10-hexahydro-4-hydroxy-2-oxo-2H-cycloocta[b]pyran-3-yl)propyl]phenyl]-, phenyl methyl ester] | – | 31.6% | 64.2% | 72.9% | – | – | – | – | – | – | –
17 | CCC(c1cccc(N)c1)c1c(O)c2c(oc1=O)CCCCCC2 (stereo not drawn) [Example 218, 2H-Cycloocta[b]pyran-2-one, 3-[1-(3-aminophenyl)propyl]-5,6,7,8,9,10-hexahydro-4-hydroxy-] | 26.2% | 65.2% | 88% | 91.4% | – | – | – | – | – | – | –
18 | CCC(c1cccc(NC(=O)CCN)c1)c1c(O)c2c(oc1=O)CCCCCC2 (stereo not drawn) [Example 220, Propanamide, 3-amino-N-[3-[1-(5,6,7,8,9,10-hexahydro4-hydroxy-2-oxo-2H-cycloocta[b]pyran-3-yl)propyl]phenyl]-, monohydrochloride] | 25.2% | 63.6% | 94% | 101% | – | – | – | – | – | – | –
19 | CCC(c1cccc(NS(=O)(=O)c2ccc(Cl)cc2)c1)c1c(O)c2c(oc1=O)CCCCCC2 (stereo not drawn) [Example 221, Benzenesulfonamide, 4-chloro-N-[3-[1-(5,6,7,8,9,10-hexahydro-4-hydroxy-2-oxo-2H-cycloocta[b]pyran-3-yl)propyl]phenyl]-] | – | – | – | – | – | 79.7% | 101% | 116% | 117% | 119% | 124%
20 | CCC(c1cccc(NS(=O)(=O)c2ccc(C#N)cc2)c1)c1c(O)c2c(oc1=O)CCCCCC2 (stereo not drawn) [Example 222, Benzenesulfonamide, 4-cyano-N-[3-[1-(5,6,7,8,9,10-hexahydro-4-hydroxy-2-oxo-2H-cycloocta[b]pyran-3-yl)propyl]phenyl]-] | – | – | – | – | – | 80.4% | 94.1% | 103% | 110% | 111% | 110%
21 | CCNC(=O)Nc1cccc(C(c2c(O)c3c(oc2=O)CCCCCC3)C2CC2)c1 (stereo not drawn) [Example 223, N-[3-[Cyclopropyl(5,6,7,8,9,10-hexahydro-4-hydroxy-2-oxo-2H-cycloocta[b]pyran-3-yl)methyl]phenyl]-N'-ethyl-urea] | – | – | – | – | – | 11.1% | 31.3% | 62.3% | 85.7% | 102% | 101%
